How the values were obtained:
[1] = tested on: Cushing's syndrome secondary to ectopic ACTH secretion; assay: Case-study: mifepristone in a patient with Cushing's syndrome secondary to ectopic ACTH secretion; format: in vivo, human; details: person
Source text: A subject, first presented with clinical symptoms of Cushing's syndrome in August 2006, and they were diagnosed with Cushing's syndrome secondary to ectopic ACTH secretion in March 2007.

[2] = tested on: Cushing's syndrome (ectopic ACTH secretion); details: cited from earlier work
[3] = 200 mg three times a day, after 2 weeks of treatment

## CC#C[C@]1(O)CC[C@H]2[C@@H]3CCC4=CC(=O)CCC4=C3[C@@H](c3ccc(N(C)C)cc3)C[C@@]21C [mifepristone]
[1]; [3]
  concomitant insulin treatment: insulin was stopped
  dose of concomitant metformin: decreased by two
  general clinical consequences of hypercortisolism: rapidly improved
  glycemia: returned to normal
[1]; mifepristone 200 mg three times a day
  dose of enalapril previously administered for hypertension: decreased from 30 mg to 10 mg
[2]; fractioned dosage, young child
  outcome of fractioned dosage: successfully given
[2]; high-dose mifepristone once a day
  efficacy in clinical trials: some efficacy

— patent publication US20100261693A1, “METHOD FOR TREATING CUSHING'S SYNDROME” (priority 2007, published 2010)
